Test results taken from US9480261B1, “Insecticidal strain of Serratia for control of brown marmorated stink bug (BMSB), Halyomorpha halys” (priority 2014, dated 2016).

Experiments:
Assay in all cases: Antibiotic susceptibility, disk method on L-agar; as to Antibiotic resistance of strain ATCC 13880: key: R—Resistant; I—Intermediate; S—Susceptible; as to Antibiotic resistance of strain BF1: key: R—Resistant; I—Intermediate; S—Susceptible; as to Antibiotic resistance of strain NRRL B-50575: key: R—Resistant; I—Intermediate; S—Susceptible; as to Antibiotic resistance of strain TBSB-08: key: R—Resistant; I—Intermediate; S—Susceptible; as to Antibiotic resistance of strain TBSB-09: key: R—Resistant; I—Intermediate; S—Susceptible
[1] = system: NRRL B-50575; type: cell-based, Serratia; conditions: for Antibiotic resistance of strain NRRL B-50575: disk method, L-agar, 25° C.; for resistance to antibiotics of NRRL B-50575 (in words): list of identifying characteristics; as to Antibiotic resistance of strain NRRL B-50575: key: R—Resistant; I—Intermediate; S—Susceptible
Description: (§1) Antibiotic Susceptibility: Two agar plates were streaked for growth with NRRL B-50575, and 8 paper discs, each soaked in a different antibiotic, were placed on the agar, with 4 discs on each plate. Disks containing the following antibiotics were used/obtained from Remel (Lenexa Kans.): ampicillin (10 μg), chloramphenicol (30 μg), erythromycin (30 μg), kanamycin (30 μg), neomycin (30 μg), tetracycline (30 μg), triple sulfa (300 μg) and vancomycin (30 μg). The plates were incubated for 24 hours at 25° C., and after this incubation period the zone of inhibition around each disc was measured.
(§2) The diffusible pink pigment (FIG. 4) produced by NRRL B-50575 (TP 07) was different from the red pigment of BF1 and ATCC 13880 (ATCC-SM), and the pigment was made at temperatures below 25° C. Antibiotic susceptibility was determined using the disk method per manufacturer's instructions on L-agar, incubated at 25° C. (Table 6). All of the pink bacterial strains had the similar antibiotic resistance. They differed in sensitivity to tetracycline, kanamycin, and chloramphenicol. They also differed from BF1 and ATCC 13880 in sensitivity to erythromycin.

[2] = system: ATCC 13880; type: cell-based, Serratia marcescens; conditions: 25° C. Also: key: R—Resistant; I—Intermediate; S—Susceptible.
Description: as §1, §2

[3] = system: Serratia marcesans BF1; type: cell-based, Serratia marcescens; conditions: 25° C. Also: key: R—Resistant; I—Intermediate; S—Susceptible.
Description: as §1, §2

[4] = system: TBSB-08; type: cell-based; conditions: 25° C. Also: key: R—Resistant; I—Intermediate; S—Susceptible.
Description: as §1, §2

[5] = system: TBSB-09; type: cell-based; conditions: 25° C. Also: key: R—Resistant; I—Intermediate; S—Susceptible.
Description: as §1, §2

Molecule | Antibiotic resistance of strain NRRL B-50575 [1] | resistance to antibiotics of NRRL B-50575 (in words) [1] | Antibiotic resistance of strain ATCC 13880 [2] | Antibiotic resistance of strain BF1 [3] | Antibiotic resistance of strain TBSB-08 [4] | Antibiotic resistance of strain TBSB-09 [5]
O=C(N[C@H](CO)[C@H](O)c1ccc([N+](=O)[O-])cc1)C(Cl)Cl [Chloramphenicol, chloramphenicol] | I | intermediate | I | S | I | S
CC1(C)S[C@@H]2[C@H](NC(=O)[C@H](N)c3ccccc3)C(=O)N2[C@H]1C(=O)O [Ampicillin, ampicillin] | R | resistant | R | R | R | R
CC[C@H]1OC(=O)[C@H](C)[C@@H](O[C@H]2C[C@@](C)(OC)[C@@H](O)[C@H](C)O2)[C@H](C)[C@@H](O[C@@H]2O[C@H](C)C[C@H](N(C)C)[C@H]2O)[C@](C)(O)C[C@@H](C)C(=O)[C@H](C)[C@@H](O)[C@]1(C)O [Erythromycin, erythromycin] | R | resistant | I | I | R | R
NC[C@H]1O[C@H](O[C@H]2[C@H](O)[C@@H](O[C@H]3O[C@H](CO)[C@@H](O)[C@H](N)[C@H]3O)[C@H](N)C[C@@H]2N)[C@H](O)[C@@H](O)[C@@H]1O [Kanamycin, kanamycin] | S | – | S | S | I | S
CN[C@H](CC(C)C)C(=O)N[C@H]1C(=O)N[C@@H](CC(N)=O)C(=O)N[C@H]2C(=O)N[C@H]3C(=O)N[C@H](C(=O)N[C@H](C(=O)O)c4cc(O)cc(O)c4-c4cc3ccc4O)[C@H](O)c3ccc(c(Cl)c3)Oc3cc2cc(c3O[C@@H]2O[C@H](CO)[C@@H](O)[C@H](O)[C@H]2O[C@H]2C[C@](C)(N)[C@H](O)[C@H](C)O2)Oc2ccc(cc2Cl)[C@H]1O [Vancomycin, vancomycin] | R | resistant | R | R | R | R
neomycin | S | susceptible | S | S | S | S
CN(C)[C@@H]1C(O)=C(C(N)=O)C(=O)[C@@]2(O)C(O)=C3C(=O)c4c(O)cccc4[C@@](C)(O)[C@H]3C[C@@H]12 [Tetracycline, tetracycline] | I | – | R | R | I | R
